A short description of the data set: physchem. Summed up: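 Solubility at pH 7.4 determined by stepwise addition of 200 mM phosphate buffer in 100 μL increments to 3 mg peptide, mixing briefly each time, until no insoluble material remained, then measured by liquid chromatography.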
The mark [1] stands for this setting: pH 7.4, aqueous buffer, pH 7.4 Phosphate Buffer - Solubility, 200 mM Phosphate buffer pH 7.4.
The mark [2] stands for this setting: pH 7.4, solubility in phosphate buffer at pH 7.4, 200 mM phosphate buffer pH 7.4.

Structures are written as SMILES. Starred links: 1 amine or outer side, 2 acyl side, 3 side chain; linkers in the order of their positions; H or OH if unused. Positions of bridges follow the written chain, without caps; N, C: chain ends. Non-standard residues stand in square brackets, D forms with d. Residues, ends and D or L forms follow the SMILES beside them. Groups on a side chain read outwards from the residue. Chains are numbered I, II in the order given. *: point of attachment. C18 diacid = O=C(O)CCCCCCCCCCCCCCCCC(=O)*; C17 diacid = O=C(O)CCCCCCCCCCCCCCCC(=O)*; γGlu = O=C(O)[C@H](CCC(=O)[*:2])N[*:1]; NMeY = CN[C@@H](Cc1ccc(O)cc1)C(=O)O; AEEA = NCCOCCOCC(=O)O; Aib = CC(C)(N)C(=O)O

In patent publication US20230143604A1, “QW DOSING OF GIP RECEPTOR AGONIST PEPTIDE COMPOUNDS AND USES THEREOF” (TAKEDA PHARMACEUTICAL COMPANY LIMITED, priority 2020, published 2023) one finds solubility data, which are given here for 7 molecules.

For `CC[C@H](C)[C@H](NC(=O)[C@H](CO)NC(=O)[C@H](Cc1ccc(O)cc1)NC(=O)[C@H](CC(=O)O)NC(=O)[C@H](CO)NC(=O)[C@@H](NC(=O)[C@H](Cc1ccccc1)NC(=O)[C@@H](NC(=O)CNC(=O)[C@H](CCC(=O)O)NC(=O)C(C)(C)NC(=O)[C@@H](N)Cc1ccc(O)cc1)[C@@H](C)O)[C@@H](C)CC)C(=O)N[C@@H](C)C(=O)N[C@@H](CC(C)C)C(=O)N[C@@H](CC(=O)O)C(=O)N[C@@H](CCCCN)C(=O)NC(C)(C)C(=O)N[C@@H](C)C(=O)N[C@@H](CCC(N)=O)C(=O)N[C@@H](CCC(N)=O)C(=O)N[C@@H](CCCCNC(=O)COCCOCCNC(=O)COCCOCCNC(=O)CC[C@H](NC(=O)CC[C@H](NC(=O)CCCCCCCCCCCCCCCC(=O)O)C(=O)O)C(=O)O)C(=O)N[C@@H](Cc1ccccc1)C(=O)N[C@H](C(=O)N[C@@H](CCC(=O)O)C(=O)N[C@@H](Cc1c[nH]c2ccccc12)C(=O)N[C@@H](CC(C)C)C(=O)N[C@@H](CC(C)C)C(=O)N[C@@H](C)C(=O)N[C@@H](CCC(N)=O)C(=O)N[C@@H](CCCNC(=N)N)C(=O)NCC(=O)O)C(C)C` [Compound 130] (H-Y[Aib]EGTFISDYSIALDK[Aib]AQQK([AEEA-AEEA-γGlu-γGlu-C17 diacid])FVEWLLAQRG-OH), the solubility by setting is: (pH 7.4) ≥ 15 mg/mL; (pH 7.4, aqueous buffer) ≥ 30 mg/mL.
In the same order, the values of `CC[C@H](C)[C@H](NC(=O)[C@H](CO)NC(=O)[C@H](Cc1ccc(O)cc1)NC(=O)[C@H](CC(=O)O)NC(=O)[C@H](CO)NC(=O)[C@@H](NC(=O)[C@H](Cc1ccccc1)NC(=O)[C@@H](NC(=O)CNC(=O)[C@H](CCC(=O)O)NC(=O)C(C)(C)NC(=O)[C@@H](N)Cc1ccc(O)cc1)[C@@H](C)O)[C@@H](C)CC)C(=O)N[C@@H](C)C(=O)N[C@@H](CC(C)C)C(=O)N[C@@H](CC(=O)O)C(=O)N[C@@H](CCCCN)C(=O)NC(C)(C)C(=O)N[C@@H](C)C(=O)N[C@@H](CCC(N)=O)C(=O)N[C@@H](C)C(=O)N[C@@H](CCCCNC(=O)COCCOCCNC(=O)COCCOCCNC(=O)CC[C@H](NC(=O)CC[C@H](NC(=O)CCCCCCCCCCCCCCCC(=O)O)C(=O)O)C(=O)O)C(=O)N[C@@H](Cc1ccccc1)C(=O)N[C@H](C(=O)N[C@@H](CCC(=O)O)C(=O)N[C@@H](Cc1c[nH]c2ccccc12)C(=O)N[C@@H](CC(C)C)C(=O)N[C@@H](CC(C)C)C(=O)N[C@@H](C)C(=O)N[C@@H](CCC(N)=O)C(=O)N[C@@H](CCCNC(=N)N)C(=O)NCC(=O)O)C(C)C` [Compound 131] (H-Y[Aib]EGTFISDYSIALDK[Aib]AQAK([AEEA-AEEA-γGlu-γGlu-C17 diacid])FVEWLLAQRG-OH) are ≥ 15 mg/mL and ≥ 30 mg/mL.
In the same order, the values of `CC[C@H](C)[C@H](NC(=O)[C@H](CCCCN)NC(=O)[C@H](CC(=O)O)NC(=O)[C@H](CC(C)C)NC(=O)[C@H](C)NC(=O)[C@@H](NC(=O)[C@H](CO)NC(=O)[C@H](Cc1ccc(O)cc1)NC(=O)[C@H](CC(=O)O)NC(=O)[C@H](CO)NC(=O)[C@@H](NC(=O)[C@H](Cc1ccccc1)NC(=O)[C@@H](NC(=O)CNC(=O)[C@H](CCC(=O)O)NC(=O)C(C)(C)NC(=O)[C@@H](N)Cc1ccc(O)cc1)[C@@H](C)O)[C@@H](C)CC)[C@@H](C)CC)C(=O)N[C@@H](C)C(=O)N[C@@H](CCC(N)=O)C(=O)NC(C)(C)C(=O)N[C@@H](CCCCNC(=O)COCCOCCNC(=O)COCCOCCNC(=O)CC[C@H](NC(=O)CC[C@H](NC(=O)CCCCCCCCCCCCCCCC(=O)O)C(=O)O)C(=O)O)C(=O)N[C@@H](Cc1ccccc1)C(=O)N[C@H](C(=O)N[C@@H](CCC(=O)O)C(=O)N[C@@H](Cc1c[nH]c2ccccc12)C(=O)N[C@@H](CC(C)C)C(=O)N[C@@H](CC(C)C)C(=O)N[C@@H](C)C(=O)N[C@@H](CCC(N)=O)C(=O)N[C@@H](CCCNC(=N)N)C(=O)NCC(=O)O)C(C)C` [Compound 132] (H-Y[Aib]EGTFISDYSIALDKIAQ[Aib]K([AEEA-AEEA-γGlu-γGlu-C17 diacid])FVEWLLAQRG-OH) are ≥ 15 mg/mL and ≥ 30 mg/mL.
In the same order, the values of `CC[C@H](C)[C@H](NC(=O)[C@H](CO)NC(=O)[C@H](Cc1ccc(O)cc1)NC(=O)[C@H](CC(=O)O)NC(=O)[C@H](CO)NC(=O)[C@@H](NC(=O)[C@H](Cc1ccccc1)NC(=O)[C@@H](NC(=O)CNC(=O)[C@H](CCC(=O)O)NC(=O)C(C)(C)NC(=O)[C@@H](N)Cc1ccc(O)cc1)[C@@H](C)O)[C@@H](C)CC)C(=O)N[C@@H](C)C(=O)N[C@@H](CC(C)C)C(=O)N[C@@H](CC(=O)O)C(=O)N[C@@H](CCCCN)C(=O)N[C@@H](C)C(=O)N[C@@H](C)C(=O)N[C@@H](CCC(N)=O)C(=O)NC(C)(C)C(=O)N[C@@H](CCCCNC(=O)COCCOCCNC(=O)COCCOCCNC(=O)CC[C@H](NC(=O)CC[C@H](NC(=O)CCCCCCCCCCCCCCCC(=O)O)C(=O)O)C(=O)O)C(=O)N[C@@H](Cc1ccccc1)C(=O)N[C@H](C(=O)N[C@@H](CCC(=O)O)C(=O)N[C@@H](Cc1c[nH]c2ccccc12)C(=O)N[C@@H](CC(C)C)C(=O)N[C@@H](CC(C)C)C(=O)N[C@@H](C)C(=O)N[C@@H](CCC(N)=O)C(=O)N[C@@H](CCCNC(=N)N)C(=O)NCC(=O)O)C(C)C` [Compound 133] (H-Y[Aib]EGTFISDYSIALDKAAQ[Aib]K([AEEA-AEEA-γGlu-γGlu-C17 diacid])FVEWLLAQRG-OH) are ≥ 15 mg/mL and ≥ 30 mg/mL.
On to `CC[C@H](C)[C@H](NC(=O)[C@H](CCCCN)NC(=O)[C@H](CC(=O)O)NC(=O)[C@H](CC(C)C)NC(=O)[C@H](C)NC(=O)[C@@H](NC(=O)[C@H](CO)NC(=O)[C@H](Cc1ccc(O)cc1)NC(=O)[C@H](CC(=O)O)NC(=O)[C@H](CO)NC(=O)[C@@H](NC(=O)[C@H](Cc1ccccc1)NC(=O)[C@@H](NC(=O)CNC(=O)[C@H](CCC(=O)O)NC(=O)C(C)(C)NC(=O)[C@@H](N)Cc1ccc(O)cc1)[C@@H](C)O)[C@@H](C)CC)[C@@H](C)CC)C(=O)N[C@@H](C)C(=O)N[C@@H](CCC(N)=O)C(=O)N[C@@H](CCC(N)=O)C(=O)N[C@@H](CCCCNC(=O)COCCOCCNC(=O)COCCOCCNC(=O)CC[C@H](NC(=O)CC[C@H](NC(=O)CCCCCCCCCCCCCCCC(=O)O)C(=O)O)C(=O)O)C(=O)N[C@@H](Cc1ccccc1)C(=O)N[C@H](C(=O)N[C@@H](CCC(=O)O)C(=O)N[C@@H](Cc1c[nH]c2ccccc12)C(=O)N[C@@H](CC(C)C)C(=O)N[C@@H](CC(C)C)C(=O)N[C@@H](C)C(=O)N[C@@H](CCC(N)=O)C(=O)N[C@@H](CCCNC(=N)N)C(=O)N1CCC[C@H]1C(=O)N[C@@H](CO)C(=O)N[C@@H](CO)C(=O)NCC(=O)N[C@@H](C)C(=O)N1CCC[C@H]1C(=O)N1CCC[C@H]1C(=O)N1CCC[C@H]1C(=O)N[C@@H](CO)C(=O)O)C(C)C` [Compound 134] (H-Y[Aib]EGTFISDYSIALDKIAQQK([AEEA-AEEA-γGlu-γGlu-C17 diacid])FVEWLLAQRPSSGAPPPS-OH), for which the solubility reads like this: under setting [1], ≥ 30 mg/mL; under setting [2], ≥ 15 mg/mL.
In the same order, the values of `CC[C@H](C)[C@H](NC(=O)[C@H](CCCCN)NC(=O)[C@H](CC(=O)O)NC(=O)[C@H](CC(C)C)NC(=O)[C@H](C)NC(=O)[C@@H](NC(=O)[C@H](CO)NC(=O)[C@H](Cc1ccc(O)cc1)NC(=O)[C@H](CC(=O)O)NC(=O)[C@H](CO)NC(=O)[C@@H](NC(=O)[C@H](Cc1ccccc1)NC(=O)[C@@H](NC(=O)CNC(=O)[C@H](CCC(=O)O)NC(=O)C(C)(C)NC(=O)[C@@H](N)Cc1ccc(O)cc1)[C@@H](C)O)[C@@H](C)CC)[C@@H](C)CC)C(=O)N[C@@H](C)C(=O)N[C@@H](CCC(N)=O)C(=O)N[C@@H](CCCNC(=N)N)C(=O)N[C@@H](CCCCNC(=O)COCCOCCNC(=O)COCCOCCNC(=O)CC[C@H](NC(=O)CC[C@H](NC(=O)CCCCCCCCCCCCCCCC(=O)O)C(=O)O)C(=O)O)C(=O)N[C@@H](Cc1ccccc1)C(=O)N[C@H](C(=O)N[C@@H](CCC(=O)O)C(=O)N[C@@H](Cc1c[nH]c2ccccc12)C(=O)N[C@@H](CC(C)C)C(=O)N[C@@H](CC(C)C)C(=O)N[C@@H](C)C(=O)N[C@@H](CCC(N)=O)C(=O)N[C@@H](CCCNC(=N)N)C(=O)N1CCC[C@H]1C(=O)N[C@@H](CO)C(=O)N[C@@H](CO)C(=O)NCC(=O)N[C@@H](C)C(=O)N1CCC[C@H]1C(=O)N1CCC[C@H]1C(=O)N1CCC[C@H]1C(=O)N[C@@H](CO)C(=O)O)C(C)C` [Compound 135] (H-Y[Aib]EGTFISDYSIALDKIAQRK([AEEA-AEEA-γGlu-γGlu-C17 diacid])FVEWLLAQRPSSGAPPPS-OH) are ≥ 30 mg/mL and ≥ 15 mg/mL.
For `CC[C@H](C)[C@H](NC(=O)[C@H](CO)NC(=O)[C@H](Cc1ccc(O)cc1)NC(=O)[C@H](CC(=O)O)NC(=O)[C@H](CO)NC(=O)[C@@H](NC(=O)[C@H](Cc1ccccc1)NC(=O)[C@@H](NC(=O)CNC(=O)[C@H](CCC(=O)O)NC(=O)C(C)(C)NC(=O)[C@H](Cc1ccc(O)cc1)NC)[C@@H](C)O)[C@@H](C)CC)C(=O)N[C@@H](C)C(=O)N[C@@H](CC(C)C)C(=O)N[C@@H](CC(=O)O)C(=O)N[C@@H](CCCNC(=N)N)C(=O)NC(C)(C)C(=O)N[C@@H](CCCCNC(=O)CNC(=O)CNC(=O)[C@@H]1CCCN1C(=O)[C@H](C)NC(=O)[C@@H]1CCCN1C(=O)[C@H](C)NC(=O)[C@@H]1CCCN1C(=O)CC[C@H](NC(=O)CCCCCCCCCCCCCCCCC(=O)O)C(=O)O)C(=O)N[C@@H](CCC(N)=O)C(=O)NC(C)(C)C(=O)N[C@@H](CC(=O)O)C(=O)N[C@@H](Cc1ccccc1)C(=O)N[C@H](C(=O)N[C@@H](CC(N)=O)C(=O)N[C@@H](Cc1c[nH]c2ccccc12)C(=O)N[C@@H](CC(C)C)C(=O)N[C@@H](CC(C)C)C(=O)N[C@@H](C)C(=O)N[C@@H](CCC(N)=O)C(=O)N[C@@H](CO)C(=O)N1CCC[C@H]1C(=O)NCC(=O)O)C(C)C` [Compound 136] (I: H-[NMeY][Aib]EGTFISDYSIALDR[Aib]KQ[Aib]DFVNWLLAQSPG-OH / II: {C18 diacid-γGlu}-PAPAPGG; amide I:18-II:C), the solubility by setting is: (pH 7.4) ≥ 15 mg/mL; (pH 7.4, aqueous buffer) ≥ 30 mg/mL.

The solubility is the concentration that dissolves in the medium under given conditions.
